Read-outs that look alike come from different tables or passages of the source.
Key:
[1] = tested on: MDA-MB-231, JIMT-1, SK-OV-3, HT29, A549, A375; test: In vitro proliferation of 6 tumor cell strains, summary statements (Example 5); assay type: cell-based, Human; details: NBP alone; 6 cell strains
Experimental: (§1) This experiment includes a monotherapy group of ab-PTX, a combined therapy group (ab-PTX/NBP), and an NBP group. Different drug concentration gradients were set for each group.
(§2) ab-PTX/NBP group: the final concentration of NBP was 30 μM, and the concentration gradient of ab-PTX was the same as that of the monotherapy group.
(§3) Monotherapy group of NBP: NBP was 2× serially diluted from an initial concentration of 480 μM to 8 concentrations: 480, 240, 120, 60, 30, 15, 7.5, and 3.75 μM, respectively.
(§4) The action time of the drug was 72 h.
(§5) 24 h after adherence, 100 μL of the culture solution containing different concentration gradients of ab-PTX was added to each well of the monotherapy group of ab-PTX; 100 μL of the culture solution containing different concentration gradients of ab-PTX and 30 μM NBP was added to each well of the combined therapy group of ab-PTX/NBP; 100 μL of the culture solution containing different concentration gradients of NBP was added to each well of the monotherapy group of NBP; 3 repeated wells were provided for each concentration of each drug, and the blank wells (only culture medium was present) and the normal wells (drug concentration was 0) were provided.
(§6) The experiment was repeated three times, and the IC50 value was expressed as the mean±SD of the results of the 3 experiments.

[2] = tested on: bortezomib chemotherapy-induced peripheral neuropathy; test: Bortezomib chemotherapy-induced peripheral neuropathy in rats (Example 6); assay type: in vivo, SD (Sprague Dawley) rats; details: compared with the model group
Experimental: (The modeling and administration time are shown in FIG. 11. The animal grouping, the administration method, and the doses are detailed in Table 14). […] (2) Thermal pain threshold: measurements were performed on days 0, 7, 14, and 21. Method: IITC Life Science Electronic Von Frey Anesthesio meter was used and the intensity of the light source was adjusted to obtain a thermal pain threshold baseline of about 3-6 s. […] The rats were placed in a plastic compartment on a glass plate, to make the planta centers of the rats be exposed to the light source. […] (3) Mechanical Stimulus Pain Threshold: Measurements were Performed on Days −1, 6, 13, and 20. Method: the rats were placed in a plastic compartment on a wire mesh, left to stand still for 15 min, stimulated using a stimulation probe with a diameter of 0.4 mm of the IITC Life Science Electronic Von Frey Anesthesio meter at the planta centers of the rats by gradually increasing the force until reflexive withdrawal of the rats.

[3] = tested on: paclitaxel (albumin bound) chemotherapy-induced peripheral neuropathy; test: Paclitaxel (albumin bound) chemotherapy-induced peripheral neuropathy in rats, butylphthalide intragastric administration (Example 2); assay type: in vivo, SD (Sprague Dawley) rats; details: compared with the model group
Experimental: The model group was given vegetable oil at the same frequency and with the same administration method as NBP. The normal group was given normal saline at the same frequency and with the same administration method as ab-PTX, and was given vegetable oil at the same frequency and with the same administration method as NBP. […] (2) Thermal pain threshold: measurements were performed on days −1, 7, and 14. Method: IITC Life Science Electronic Von Frey Anesthesio meter was used and the intensity of the light source was adjusted to obtain a baseline of thermal pain threshold of about 3-6 s. […] The rats were placed in a plastic compartment on a glass plate, to make the planta centers of the rats be exposed to the light source. […] (3) Mechanical stimulus pain threshold: measurements were performed on days 0, 6, and 13. Method: the rats were placed in a plastic compartment on a wire mesh, left to stand still for 15 min, stimulated using a stimulation probe with a diameter of 0.4 mm of the IITC Life Science Electronic Von Frey Anesthesio meter at the planta centers of the rats by gradually increasing the force until reflexive withdrawal of the rats.

MM.1S = test: In vitro tumor cell proliferation, MTT (Example 7); details: Homo sapiens, MM1.S, 72 h
Experimental: (§7) This experiment includes a monotherapy group of Bortezomib, a combined therapy group (Bortezomib/NBP), and a monotherapy group of NBP. Different drug concentration gradients were set for each group.
(§8) Monotherapy group of Bortezomib: (1) MM.1S, Jeko-1, and HT29 cells: Bortezomib was 1.5× serially diluted from an initial concentration of 20 nM to 8 concentrations: 20, 13.33, 8.89, 5.93, 3.95, 2.63, 1.76, and 1.17 nM, respectively; (2) A549 cells: Bortezomib was 2×serially diluted from an initial concentration of 200 nM to 8 concentrations: 200, 100, 50, 25, 12.5, 6.25, 3.13, and 1.56 nM, respectively; and (3) DU145 cells: Bortezomib was 2× serially diluted from an initial concentration of 100 nM to 8 concentrations: 100, 50, 25, 12.5, 6.25, 3.13, 1.56, and 0.78 nM, respectively.
(§9) A certain number of conventionally cultured cells in logarithmic growth phase were inoculated in a 96-well plate with 100 μL per well. […] For adherent cells HT29, A549, and DU145, the above drugs were added 24 h after adherence. 3 replicate wells were set for each concentration of each drug, and blank wells (only culture medium was present, and no tumor cells were inoculated) and normal wells (a culture medium inoculated with tumor cells, drug concentration was 0) were set. The drugs functioned for 72 h, then MTT working solution (5 mg/mL) was added at 20 μL per well; after functioning at 37° C. for 4 h, the supernatant was removed, 150 μL of DMSO (analytically pure) was added; the mixture was fully mixed using a microplate oscillator, the plate was wiped clean, and the optical density (OD) at 550 nm was measured using a microplate reader.
(§10) The cell growth inhibition rate was computed using the following equation:
(§11) Inhibition rate (%)=(OD valuenormal well−OD valueadministration well)/(OD valuenormal well−OD valueblank well)×100%
(§12) Based on the inhibition rate of each concentration, the median inhibitory concentration IC50 of the drug was computed using SPSS19.0.

[4] = tested on: MM.1S, Jeko-1, HT29, A549, DU145; test: In vitro proliferation of 5 cell strains, summary statements (Example 7); assay type: cell-based, Human; details: monotherapy of NBP; 5 cell strains
Experimental: Different drug concentration gradients were set for each group.
as §3, §4
3 replicate wells were set for each concentration of each drug, and blank wells (only culture medium was present, and no tumor cells were inoculated) and normal wells (a culture medium inoculated with tumor cells, drug concentration was 0) were set.

Jeko-1 = test: In vitro tumor cell proliferation, MTT (Example 7); details: Homo sapiens, JeKo-1, 72 h
Experimental: as §7, §8, §9, §10, §11, §12

SK-OV-3 = test: In vitro tumor cell proliferation, MTT (Example 5); assay type: cell-based; details: Homo sapiens, 30 μM NBP alone, 72 h, read-out: Inhibition rate
Experimental: as §1, §2, §3, §4, §5, §6

MDA-MB-231 = test: In vitro tumor cell proliferation, MTT (Example 5); assay type: cell-based; details: Homo sapiens, 30 μM NBP alone, 72 h, read-out: Inhibition rate
Experimental: as §1, §2, §3, §4, §5, §6

A549 = test: In vitro tumor cell proliferation, MTT (Example 5); assay type: cell-based; details: Homo sapiens, 30 μM NBP alone, 72 h, read-out: Inhibition rate
Experimental: as §1, §2, §3, §4, §5, §6

[5] = tested on: paclitaxel (albumin bound) chemotherapy-induced peripheral neuropathy; test: Paclitaxel (albumin bound) chemotherapy-induced peripheral neuropathy in rats, butylphthalide intraperitoneal injection (Example 1); assay type: in vivo, SD (Sprague Dawley) rats; details: NBP 1.5, 5 and 15 mg/kg bid i.p., compared with the model group
Experimental: The normal group was administered with 0.9% normal saline (0.9% INJ NS) at the same frequency. The animal grouping, the administration method, and the doses are detailed in Table 3. Based on the thermal pain threshold baselines and the body weights of the rats, the rats with the baseline values ranging from 3 to 6 s were selected, and were equally grouped in accordance with the above Table 3. […] (2) Thermal pain threshold: IITC Life Science Electronic Von Frey Anesthesio meter was used and the intensity of the light source was adjusted to obtain a baseline of thermal pain threshold of about 3-6 s. […] The rats were placed in a plastic compartment on a glass plate, to make the planta centers of the rats be exposed to the light source.

DU145 = test: In vitro tumor cell proliferation, MTT (Example 7); details: Homo sapiens, DU-145, 72 h
Experimental: as §7, §8, §9, §10, §11, §12

[6] = read-out: Inhibition rate, First dose
[7] = read-out: Inhibition rate, Mean ± SD
[8] = read-out: Inhibition rate, Second dose
[9] = read-out: Inhibition rate, Third dose

## CCCCC1OC(=O)c2ccccc21 (stereo not shown) [NBP, 3-n-butylphthalide]
[1]
  inhibitory effect on in vitro proliferation: did not have obvious inhibitory effect
[2]; day 20, NBP 10 and 30 mg/kg bid
  mechanical stimulus pain threshold (decrease in model rats): significantly reversed
[2]; day 21, NBP 3, 10 and 30 mg/kg bid gavage
  body weights of the rats: not obviously changed
[2]; day 21, NBP 3, 10 and 30 mg/kg bid
  thermal pain threshold (decrease in model rats): significantly reversed
[3]; NBP 3, 10 and 30 mg/kg bid, duloxetine hydrochloride 15 mg/kg qd, intragastric, throughout administration
  body weights of the rats: not obviously changed
[3]; day 6, NBP 30 mg/kg bid p.o., P<0.05
  mechanical pain threshold: significantly decreased
[3]; day 7, NBP 30 mg/kg bid p.o., P<0.05
  thermal pain threshold: significantly decreased
[3]; day 13, NBP 3 mg/kg bid p.o.
  mechanical pain threshold: had a decreasing trend, but did not have statistical difference
[3]; day 13, NBP 10 and 30 mg/kg bid, duloxetine hydrochloride 15 mg/kg qd, P<0.05
  mechanical pain threshold: significantly decreased
[3]; day 14, NBP 3, 10 and 30 mg/kg bid, duloxetine hydrochloride 15 mg/kg qd, P<0.05
  thermal pain threshold: significantly decreased
MM.1S; [6]
  inhibition at 30 µM: 0.16%
MM.1S; [7]
  inhibition at 30 µM: 12.1 ± 11.1%
MM.1S; [8]
  inhibition at 30 µM: 14.1%
MM.1S; [9]
  inhibition at 30 µM: 22.1%
[4]
  inhibitory effect on in vitro proliferation: does not have obvious inhibitory effect
Jeko-1; [6]
  inhibition at 30 µM: -7.67%
Jeko-1; [7]
  inhibition at 30 µM: -11.5 ± 6.32%
Jeko-1; [8]
  inhibition at 30 µM: -18.8%
Jeko-1; [9]
  inhibition at 30 µM: -8.11%
SK-OV-3
  inhibition at 30 µM: 12.4 ± 7.41%
MDA-MB-231
  inhibition at 30 µM: 3.43 ± 3.95%
A549
  inhibition at 30 µM: 5.12 ± 7.36%
[5]; D4-16
  body weights of the rats: not significantly changed
[5]; D7-13, P<0.05 or P<0.01
  thermal pain threshold (increase in model rats): significantly decreased
DU145; [6]
  inhibition at 30 µM: -2.22%
DU145; [7]
  inhibition at 30 µM: 4.03 ± 5.88%
DU145; [8]
  inhibition at 30 µM: 9.44%
DU145; [9]
  inhibition at 30 µM: 4.87%

Source: patent US20230144023A1, “USE OF BUTYLPHTHALIDE AND DERIVATIVE THEREOF” (CSPC NBP PHARMACEUTICAL CO., LTD, priority 2020, published 2023)
